Our source for the Activity values is ChEMBL document CHEMBL1158293, “Isolation and structure of prorocentrolide B, a fast-acting toxin from Prorocentrum maculosum” (J Nat Prod, 1996).

For this series, the system named is Mus musculus. Put plainly: Toxicity in ip dosed CD1 mouse. The series is classed as organism-based. Conditions: in vivo.

As to `C=C1CCC2OC(CC3=CC4/C(C)=C/CC(C)CC(/C=C/C(O)C5CC(O)C(O)C(CCC(O)/C=C/C(C)=C/CCC6=NCCC(C3)C64C)O5)OC(=O)CC3OC(C(O)CC1C)C(O)C3OS(=O)(=O)O)C(O)CC2O` (stereo unspecified) [PROROCENTROLIDE B], the Activity entry is recorded as “Toxic”.
